Laboratory results: the Kinase Knowledgebase extract (Sharma et al. 2016)

Biological target: EGFR (human) (UniProt P00533)
Conditions: mcf-7

Chain of EGFR (human) (P00533 whole entry, looked up): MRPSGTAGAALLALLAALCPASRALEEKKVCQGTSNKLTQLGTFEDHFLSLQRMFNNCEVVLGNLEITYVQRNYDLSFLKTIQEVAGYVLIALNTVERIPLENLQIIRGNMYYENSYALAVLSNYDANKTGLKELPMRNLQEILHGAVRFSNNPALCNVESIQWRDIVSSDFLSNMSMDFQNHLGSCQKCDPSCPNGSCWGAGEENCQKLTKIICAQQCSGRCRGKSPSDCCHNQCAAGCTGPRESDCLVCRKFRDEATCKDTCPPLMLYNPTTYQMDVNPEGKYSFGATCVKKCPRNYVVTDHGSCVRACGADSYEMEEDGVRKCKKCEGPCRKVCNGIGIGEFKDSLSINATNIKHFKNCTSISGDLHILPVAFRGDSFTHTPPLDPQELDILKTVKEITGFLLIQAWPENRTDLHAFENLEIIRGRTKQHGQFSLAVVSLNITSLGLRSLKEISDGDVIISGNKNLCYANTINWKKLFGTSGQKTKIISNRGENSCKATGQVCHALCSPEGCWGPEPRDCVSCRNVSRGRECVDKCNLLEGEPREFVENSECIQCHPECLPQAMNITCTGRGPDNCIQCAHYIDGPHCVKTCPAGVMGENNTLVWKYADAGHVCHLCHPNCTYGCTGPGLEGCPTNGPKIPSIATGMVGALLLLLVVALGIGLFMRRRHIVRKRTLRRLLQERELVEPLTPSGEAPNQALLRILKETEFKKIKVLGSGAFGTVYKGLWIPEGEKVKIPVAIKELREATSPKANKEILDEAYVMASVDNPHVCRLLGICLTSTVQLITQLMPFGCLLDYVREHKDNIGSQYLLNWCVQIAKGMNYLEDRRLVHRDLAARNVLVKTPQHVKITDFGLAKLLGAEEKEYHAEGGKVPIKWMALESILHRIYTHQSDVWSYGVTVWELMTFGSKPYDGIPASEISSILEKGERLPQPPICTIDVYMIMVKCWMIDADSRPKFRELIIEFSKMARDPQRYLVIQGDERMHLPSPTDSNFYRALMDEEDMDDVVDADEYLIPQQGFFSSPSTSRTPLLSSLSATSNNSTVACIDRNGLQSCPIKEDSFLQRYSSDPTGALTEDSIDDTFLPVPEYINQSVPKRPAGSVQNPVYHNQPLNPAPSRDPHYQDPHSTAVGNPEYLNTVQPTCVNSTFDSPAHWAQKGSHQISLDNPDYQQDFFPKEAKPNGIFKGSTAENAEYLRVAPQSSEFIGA

Structure (SMILES)	IC50
COc1cc2nc(Cl)nc(Nc3ccc(S(=O)(=O)Nc4nccs4)cc3)c2cc1OC	0.13 nM
CCOc1ccc2nc(C)cc(N3CCN(C(=O)c4ccco4)CC3)c2c1	4.31 nM
CCOc1ccc2nc(C)cc(Nc3cccc(O)c3)c2c1	2.84 nM
CCOc1ccc2nc(C)cc(Nc3ccc(S(=O)(=O)Nc4cc(C)on4)cc3)c2c1	13.8 nM
CCOc1ccc2nc(C)cc(Nc3ccc(Cl)cc3Cl)c2c1	4.38 nM
CCOc1ccc2nc(C)cc(Nc3ccc(S(=O)(=O)NC(=N)N)cc3)c2c1	19.2 nM
CCOc1ccc2nc(C)cc(Nc3ccc(S(=O)(=O)Nc4ncccn4)cc3)c2c1	3.96 nM

Further lines, results first:

IC50	Structure (SMILES)
1.08 nM	COc1cc2nc(Cl)nc(N3CCN(S(=O)(=O)c4ccc(C)cc4)CC3)c2cc1OC
1.67 nM	CCOc1ccc2nc(C)cc(Nc3cc(OC)c(OC)cc3C(=O)OC)c2c1
1.98 nM	COc1cc2nc(Cl)nc(Nc3ccc(S(=O)(=O)Nc4cc(C)on4)cc3)c2cc1OC
